Results on 3 molecules are retold here after patent EP0345906B1, “Unique elastase induced fibrinogen cleavage site antigens” (MERCK & CO. INC., priority 1988, dated 1989).

One experiment concerns whole human blood. The experiment can be described thus: In vitro production of Aα 17-21 epitope containing peptide in human blood, other membrane perturbators with cytochalasin B. It counts as cell-based. The settings on record: 5 mg/ml cytochalasin B. Here is the method: Other known membrane perturbators have been used to evaluate the in vitro production of the epitope containing cleavage peptide Aα 17-21 in human blood. Aliquots of freshly-drawn heparinized whole blood were incubated for 25 minutes at 37°C in the presence of either 5 mg/ml cytochalasin B and concentrations of phorbol-12-myristate-13-acetate (PMA) ranging up to 20 mM or in the presence of the combination of 5 mg/ml cytochalasin B and concentrations of n-formyl-L-norleucyl-L-leucyl-L-phenylalanine (FNLP) ranging up to 20 mM. Plasma was collected, prepared and assayed as described above.

The target in another experiment is T1, human leukocyte elastase (Homo sapiens, UniProt P08246).
T1 construct: exposure of whole human blood to calcium ionophore A23187 results in elastase cleavage product by allowing the release of neutrophil elastase; endogenous in cells; host or cells: leukocytes (neutrophils) in freshly drawn heparinized whole human blood, stimulated with A23187
T1 sequence (P08246 30-267): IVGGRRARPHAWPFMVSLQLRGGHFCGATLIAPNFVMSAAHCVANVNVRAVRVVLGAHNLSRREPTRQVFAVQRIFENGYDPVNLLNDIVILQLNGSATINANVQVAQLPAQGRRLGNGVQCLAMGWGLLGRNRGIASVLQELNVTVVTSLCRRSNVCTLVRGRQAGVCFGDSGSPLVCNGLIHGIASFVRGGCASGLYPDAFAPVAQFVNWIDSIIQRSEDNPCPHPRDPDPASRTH
The experiment is described as follows: Elastase inhibitor activity assay: A23187-stimulated fibrinogen cleavage peptide production in whole human blood. The following applies: A23187 150 mM. Format: cell-based. Here is the method: The above defined assay technology is used to monitor the activity of human elastase inhibitors on human leukocyte elastase activity in human and primate blood. […] Replicate aliquots of freshly-drawn heparinized whole human blood are prepared with concentrations of elastase inhibitor ranging up to about 300 mg/ml. Following a brief pre-incubation with the inhibitor, a membrane perturbator, such as calcium ionophore A23187, is added at a concentration of between about 75 mM and about 300 mM. Non-membrane perturbator controls containing blood and perturbator-only controls are included to measure the extent of uninhibited peptide generation. All assay samples are incubated at about 37°C for about 25 minutes. The plasma is then prepared and assayed for fibrinogen cleavage products as described above.
The effect of the elastase inhibitor 3-Acetoxymethyl-1a-methoxy-6-oxo-5-thia-1-azabicyclo[4.2.0]oct-2-ene-2-(2-(S)-carboxypyrrolidinecarboxamide)5,5-dioxide (compound 1) on the calcium ionophore A23187-induced fibrinogen cleavage peptide production was evaluated. Replicate 2 ml aliquots of freshly-drawn heparinized whole human blood were prepared with concentrations of compound 1 ranging up to […]. Following a brief pre-incubation of 5 minutes at 37°C, calcium ionophore A23187 was added to a final concentration of 150 mM. Non-ionophore containing blood and ionophore-only (no inhibitor) controls were included to measure the extent of uninhibited peptide generation. All aliquots were incubated at 37°C for 25 minutes, the plasma collected, processed and assayed for fibrinogen cleavage peptide as described above.

The next experiment relates to leukocyte elastase. The experiment is described as follows: Ionophore-induced peptide production in blood drawn from an elastase inhibitor-treated chimpanzee. Format: in vivo. Here is the method:
In vivo inhibition of fibrinogen cleavage products following treatment of primates with an elastase inhibitor is evaluated. Blood or fluid samples are collected both before and after treatment with either an elastase inhibitor or saline. Each heparinized blood sample is divided into about 4 aliquots (about 1 ml) and processed as described above. Treatment of an animal with an elastase inhibitor causes a marked reduction in the amount of elastase cleavage product produced.
Two chimpanzees were anesthetized and fitted with venous catheters for the collection of blood. Blood was collected from each animal at intervals over a 60 minute period prior to the administration of the elastase inhibitor. All blood samples were collected in heparin. After the initial 60 minute period one animal was given an intravenous injection of 10 mg/kg of the elastase inhibitor compound 1 while the other animal received an equivalent volume of normal saline. Additional heparinized blood samples were taken from both animals at regular intervals over the next 60 minutes. Each freshly-drawn sample of whole heparinized chimpanzee blood was divided into 4 aliquots. Calcium ionophore A23187 was added at a final concentration of 150 mM to two of the aliquots and an equivalent volume of the DMSO vehicle was added to the other two. All blood samples were incubated at 37° for 25 minutes, plasma collected and assayed as described above.
Elastase inhibitor was infused into the treated animal at time 0.

`CCCCCCCCCCCCCC(=O)O[C@@H]1[C@@H](C)[C@@]2(O)[C@@H](C=C(CO)C[C@]3(O)C(=O)C(C)=C[C@@H]23)[C@@H]2C(C)(C)[C@]12OC(C)=O` [PMA, phorbol-12-myristate-13-acetate]: the “Aα 17-21 Epitope Containing Peptide Produced (picomoles/ml plasma)” value in the experiment on whole human blood (PMA 0.003 mMolar, 25 minutes at 37°C) was 0.0 picomoles/ml plasma; with whole human blood (PMA 0.010 mMolar), 0.3 picomoles/ml plasma; in the experiment on whole human blood (PMA 0.03 mMolar), 0.3 picomoles/ml plasma; with whole human blood (PMA 0.10 mMolar), 0.4 picomoles/ml plasma; in the experiment with whole human blood (PMA 0.30 mMolar), 0.9 picomoles/ml plasma; in the experiment with whole human blood (PMA 1.0 mMolar) it was 1.5 picomoles/ml plasma. Besides, the “Aα 17-21 Epitope Containing Peptide Produced (picomoles/ml plasma)” value in the experiment on whole human blood (PMA 3.0 mMolar) was 2.6 picomoles/ml plasma; in the experiment on whole human blood (PMA 10.0 mMolar) it was 3.0 picomoles/ml plasma; in the experiment on whole human blood (PMA 20.0 mMolar), 3.7 picomoles/ml plasma.

In general, inhibition refers to the share of the control response that was lost under treatment. `COC1C(=O)N2C(C(=O)N3CCCC3C(=O)O)=C(COC(C)=O)CS(=O)(=O)C12` [compound 1, 3-Acetoxymethyl-1a-methoxy-6-oxo-5-thia-1-azabicyclo[4.2.0]oct-2-ene-2-(2-(S)-carboxypyrrolidinecarboxamide)5,5-dioxide]: the “Cleavage Product Produced picomoles/ml” value is 2.3 picomoles/ml on human leukocyte elastase (Elastase Inhibitor 1 mg/ml); 1.6 picomoles/ml on human leukocyte elastase (Elastase Inhibitor 5 mg/ml); 1.6 picomoles/ml on human leukocyte elastase (Elastase Inhibitor 10 mg/ml); 1.5 picomoles/ml at human leukocyte elastase (Elastase Inhibitor 20 mg/ml); 1.2 picomoles/ml at human leukocyte elastase (Elastase Inhibitor 30 mg/ml); 0.8 picomoles/ml at human leukocyte elastase (Elastase Inhibitor 40 mg/ml). Also, the “Cleavage Product Produced picomoles/ml” value on human leukocyte elastase (Elastase Inhibitor 80 mg/ml) amounted to 0.4 picomoles/ml. The inhibition at 1000 µg/mL on human leukocyte elastase (Elastase Inhibitor 1 mg/ml, read-out: Percent Inhibition) was 4%. Besides, the “A 1-21 Peptide Produced (picomoles/ml plasma) Treated” value in the experiment with leukocyte elastase (Time 1.0 min after intravenous injection of 10 mg/kg, blood stimulated with A23187 150 mM) stood at 1.10 picomoles/ml plasma; in the experiment on leukocyte elastase (Time 2.5 min after intravenous 10 mg/kg), 1.30 picomoles/ml plasma; in the experiment with leukocyte elastase (Time 5.0 min after intravenous 10 mg/kg), 1.60 picomoles/ml plasma; in the experiment on leukocyte elastase (Time 7.5 min after intravenous 10 mg/kg), 2.00 picomoles/ml plasma; in the experiment on leukocyte elastase (Time 10.0 min after intravenous 10 mg/kg) it was 1.80 picomoles/ml plasma; in the experiment on leukocyte elastase (Time 12.5 min after intravenous 10 mg/kg) it was 1.70 picomoles/ml plasma. Moreover, the “A 1-21 Peptide Produced (picomoles/ml plasma) Treated” value stood at 0.98 picomoles/ml plasma with leukocyte elastase (Time 15.0 min after intravenous 10 mg/kg); 1.90 picomoles/ml plasma in the experiment on leukocyte elastase (Time 20.0 min after intravenous 10 mg/kg); 2.20 picomoles/ml plasma in the experiment with leukocyte elastase (Time 30.0 min after intravenous 10 mg/kg); 3.10 picomoles/ml plasma in the experiment with leukocyte elastase (Time 40.0 min after intravenous 10 mg/kg); 2.60 picomoles/ml plasma in the experiment with leukocyte elastase (Time 50.0 min after intravenous 10 mg/kg); 2.50 picomoles/ml plasma in the experiment on leukocyte elastase (Time 60.0 min after intravenous 10 mg/kg). Besides, the “levels of the fibrinogen peptide produced in response to calcium ionophore A23187 after infusion” value in the experiment on leukocyte elastase (treated chimpanzee, 10 mg/kg intravenous, in words) was “markedly lower levels”.

For “n-formyl-L-norleucyl-L-leucyl-L-phenylalanine [FNLP]”, the “Aα 17-21 Epitope Containing Peptide Produced (picomoles/ml plasma)” value in the experiment with whole human blood (FNLP 0.001 mMolar, 25 minutes at 37°C) turned out to be 0.0 picomoles/ml plasma; in the experiment with whole human blood (FNLP 0.003 mMolar) it was 0.0 picomoles/ml plasma; with whole human blood (FNLP 0.010 mMolar), 0.0 picomoles/ml plasma; with whole human blood (FNLP 0.03 mMolar) it was 0.4 picomoles/ml plasma; in the experiment with whole human blood (FNLP 0.1 mMolar) it was 0.9 picomoles/ml plasma; with whole human blood (FNLP 0.3 mMolar), 1.1 picomoles/ml plasma. The “Aα 17-21 Epitope Containing Peptide Produced (picomoles/ml plasma)” value in the experiment on whole human blood (FNLP 1.0 mMolar) is 1.1 picomoles/ml plasma; in the experiment on whole human blood (FNLP 3.0 mMolar) it was 1.3 picomoles/ml plasma; in the experiment on whole human blood (FNLP 10.0 mMolar), 1.2 picomoles/ml plasma; with whole human blood (FNLP 20.0 mMolar) it was 1.3 picomoles/ml plasma.
